Among the test systems are 786-0 renal; DU-145 prostate; HCC-2998 colon; HT29 colon; K-562 leukemia; LOX IMVI melanoma; M14 melanoma; RXF 393 renal; SR leukemia; U251 CNS.
What all share (assay): inhibition of tumour cell growth, NCI panel, 48 h

From PubChem BioAssay (NCI) come the findings set out here.

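Method: 48-hour compound exposure of cells in 96-well plates, five concentrations, linear interpolation of endpoints. GI50: concentration for 50% inhibition of growth. At the TGI there is no net growth.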

Take `COc1cc(C2C3=C(COC3=O)N(CCO)c3cc4c(cc32)CCC4)cc(OC)c1O` (stereo unspecified): the GI50 with 786-0 renal is 0.77 µM; in the experiment on DU-145 prostate, 0.136 µM; in the experiment with HCC-2998 colon it was 0.221 µM; in the experiment on HT29 colon it was 0.156 µM; in the experiment on K-562 leukemia, 0.161 µM; with LOX IMVI melanoma, 0.187 µM. The GI50 is 0.179 µM with M14 melanoma, 0.0943 µM in the experiment with RXF 393 renal, 0.192 µM in the experiment with SR leukemia and 0.145 µM with U251 CNS. Moreover, the TGI in the experiment with 786-0 renal was 32 µM; in the experiment on DU-145 prostate, 2.31 µM; in the experiment with HCC-2998 colon, 1.29 µM; in the experiment on K-562 leukemia, above 32.5 µM; in the experiment on LOX IMVI melanoma, above 32.5 µM; in the experiment with SR leukemia, above 32.5 µM. Further, the TGI in the experiment on U251 CNS is above 32.5 µM.
For the compound `Cc1nn(-c2ccccc2)c2c1C1C(=C(c3ccc(Cl)cc3)N2)C(=O)Nc2ccccc21` (stereo unspecified), the GI50 was 3.97 µM with 786-0 renal; 7.01 µM with DU-145 prostate; 3.43 µM with HCC-2998 colon; 2.89 µM in the experiment on HT29 colon; 3.33 µM with K-562 leukemia; 3.54 µM in the experiment on LOX IMVI melanoma. Besides, the GI50 is 3.26 µM in the experiment on M14 melanoma, 2.19 µM in the experiment on RXF 393 renal, 2.15 µM in the experiment with SR leukemia and 2.98 µM in the experiment with U251 CNS. The TGI was 31 µM in the experiment on 786-0 renal; above 100 µM in the experiment with DU-145 prostate; 10.6 µM with HCC-2998 colon; 8.61 µM in the experiment on HT29 colon; 46.7 µM in the experiment with K-562 leukemia; 12 µM in the experiment with LOX IMVI melanoma. For the same compound, the TGI came out at 15.2 µM in the experiment with M14 melanoma, 6.7 µM in the experiment on RXF 393 renal, 5.58 µM with SR leukemia and 12.3 µM in the experiment on U251 CNS.
Turning to `COC(=O)c1cc(Nc2ccc(O)c3c2C(=O)c2c([N+](=O)[O-])ccc(O)c2C3=O)cc(C(=O)OC)c1`, the GI50 is 30.6 µM with 786-0 renal; 1.75 µM with DU-145 prostate; 4.39 µM in the experiment on HCC-2998 colon; 8.21 µM in the experiment on HT29 colon; 27.2 µM in the experiment on K-562 leukemia; 6.39 µM with LOX IMVI melanoma. Also, the GI50 in the experiment on M14 melanoma is 3.15 µM; with RXF 393 renal, 5.09 µM; in the experiment on SR leukemia it was 3.19 µM; in the experiment on U251 CNS it was 25.7 µM. Further, the TGI is above 100 µM with 786-0 renal; 3.51 µM in the experiment on DU-145 prostate; above 100 µM in the experiment with HCC-2998 colon; above 100 µM in the experiment with HT29 colon; above 100 µM in the experiment on K-562 leukemia; above 100 µM in the experiment with LOX IMVI melanoma. Besides, the TGI in the experiment on M14 melanoma is above 100 µM; with RXF 393 renal, above 100 µM; in the experiment on SR leukemia it was 42.6 µM; with U251 CNS it was above 100 µM.
In the case of `Cc1ccc([P+](Cc2ccc([N+](=O)[O-])cc2)(c2ccc(C)cc2)c2ccc(C)cc2)cc1`, the GI50 with 786-0 renal was 9.72 µM; with DU-145 prostate, 5.44 µM; in the experiment on HCC-2998 colon, 2.87 µM; in the experiment with HT29 colon, 2.51 µM; in the experiment with K-562 leukemia it was 1.28 µM; in the experiment on LOX IMVI melanoma it was 2.32 µM. Further, the GI50 was 2.96 µM in the experiment on M14 melanoma, 5.55 µM in the experiment with RXF 393 renal, 2.84 µM in the experiment with SR leukemia and 2.56 µM in the experiment with U251 CNS. The TGI with 786-0 renal worked out at 22.3 µM; with DU-145 prostate it was 20.8 µM; in the experiment on HCC-2998 colon it was 11.8 µM; in the experiment on HT29 colon it was 12.8 µM; in the experiment with K-562 leukemia, 12.3 µM; in the experiment with LOX IMVI melanoma it was 12.5 µM. In addition, the TGI was 12.3 µM with M14 melanoma, 20.2 µM with RXF 393 renal, 12.3 µM in the experiment on SR leukemia and 12.2 µM with U251 CNS.
As to `CC[C@]12C=CCN3CC[C@]4(C(=C(C(=O)OC)C1)Nc1cc(O)ccc14)[C@@H]32`, the GI50 in the experiment with 786-0 renal was 15.7 µM; in the experiment with DU-145 prostate it was 21.7 µM; with HCC-2998 colon, 14.9 µM; in the experiment with HT29 colon, 19.9 µM; in the experiment with K-562 leukemia, 7.59 µM; in the experiment with LOX IMVI melanoma, 13.6 µM. For the same compound, the GI50 in the experiment on M14 melanoma was 13.9 µM; with RXF 393 renal, 13.3 µM; in the experiment on SR leukemia, 12.3 µM; in the experiment with U251 CNS, 15.6 µM. Further, the TGI is 40.8 µM in the experiment on 786-0 renal; 45.3 µM with DU-145 prostate; 29.6 µM in the experiment on HCC-2998 colon; 63.1 µM with HT29 colon; above 100 µM in the experiment with K-562 leukemia; 26.7 µM with LOX IMVI melanoma. The TGI in the experiment on M14 melanoma was 34.3 µM; in the experiment with RXF 393 renal it was 28.9 µM; with SR leukemia, above 100 µM; in the experiment on U251 CNS it was 36.9 µM.
In the case of `O=C(Oc1c(I)ccccc1=O)c1ccc([N+](=O)[O-])cc1`, the TGI in the experiment with 786-0 renal is above 100 µM; in the experiment on DU-145 prostate, 26.8 µM; in the experiment on HCC-2998 colon, 49.5 µM; in the experiment with HT29 colon, 24.8 µM; with K-562 leukemia it was 61.9 µM; in the experiment on LOX IMVI melanoma, 83.2 µM. Also, the TGI with M14 melanoma stood at 73.3 µM; in the experiment with RXF 393 renal, 21.7 µM; with SR leukemia, 24.2 µM; with U251 CNS, 57.9 µM.
With `CC1(C)N=C(N)N=C(N)N1c1ccc(OCC(=O)Nc2cccc(S(=O)(=O)F)c2)c(Cl)c1`, the TGI in the experiment on 786-0 renal is above 42.5 µM; in the experiment on DU-145 prostate it was above 100 µM; in the experiment on HCC-2998 colon it was above 100 µM; with HT29 colon, above 100 µM; in the experiment on K-562 leukemia, above 100 µM; in the experiment with LOX IMVI melanoma it was above 100 µM. For the same compound, the TGI in the experiment with M14 melanoma, in the experiment with RXF 393 renal, with SR leukemia and in the experiment on U251 CNS was above 100 µM throughout.
In the case of `COC(=O)[C@H](Cc1ccccc1)NC(=O)c1csc([C@@H](C[C@H](C(C)C)N(C)C(=O)[C@@H](NC(=O)[C@H]2CCCCN2C)C2CC2)OC(C)=O)n1`, the GI50 in the experiment with 786-0 renal was 0.064 µM; in the experiment on DU-145 prostate, 0.0218 µM; with HCC-2998 colon it was 0.162 µM; in the experiment with HT29 colon it was 0.0175 µM; in the experiment with K-562 leukemia, 0.0118 µM; with LOX IMVI melanoma it was 0.0403 µM. For the same compound, the GI50 with M14 melanoma was 0.0328 µM; with RXF 393 renal it was 0.0351 µM; in the experiment with SR leukemia it was 0.00563 µM; with U251 CNS, 0.0669 µM. Moreover, the TGI with 786-0 renal, in the experiment with DU-145 prostate, in the experiment on HCC-2998 colon, in the experiment on HT29 colon, with K-562 leukemia and in the experiment on LOX IMVI melanoma was above 25 µM in each case. For the same compound, the TGI in the experiment on RXF 393 renal, in the experiment on SR leukemia and with U251 CNS was above 25 µM each time.
